Read-outs that look alike come from different tables or passages of the source.
How the values were obtained:
[1] = test system: transgenic fli-1: enhanced GFP zebrafish embryos; test: Zebrafish embryo assay: antiangiogenic effects; format: in vivo, zebrafish (Danio rerio); settings: Danio rerio, zebrafish embryos
Protocol: As stated previously, zebrafish is regarded as a powerful tool in the study of human diseases. […] In this study, all GA derivatives were incubated with the transgenic friend leukemia integration-1 (fli-1): enhanced GFP zebrafish embryos which carried a fli-1 promoter which can drive the expression of GFP in the whole endothelium.
Figure 1 Effects on neovascularization in zebrafish embryos. The transgenic fli-1: enhanced GFP zebrafish embryos in embryo water (0.2 g/L of instant ocean salt in distilled water) incubated with 1 μM of compounds at 6 h postfertilization (hpf) for 24 h. Zebrafish embryos were imaged (Imager.Z1, magnification: left, 40×; right, 100×).
Using transgenic fli-1: enhanced GFP zebrafish embryos, we investigated the effects of all compounds on angiogenesis. […] At about 6 h post fertilization (hpf), the embryos were sorted in the 6-well plate (six embryos/well), removing dead and unhealthy embryos. Then the embryos were treated with the indicated concentrations of compounds which were added into embryo water. After incubation for 24 or 48 h, the embryos were anesthetized using 0.05% 2-phenoxyethanol in embryo water, quantified and photographed.

[2] = test system: zebrafish embryos; test: Zebrafish toxicity: heart rates; format: in vivo
Protocol: (§1) To investigate the toxicity of these four compounds, the heart rates and the mortality rates of zebrafish embryos were recorded (Table 2 and Table 3). The heart rate of zebrafish in the control group was 117 beats/min.
(§2) Using transgenic fli-1: enhanced GFP zebrafish embryos, we investigated the effects of all compounds on angiogenesis. Zebrafish embryos were generated by natural pairwise mating and raised at 28.5 °C in embryo water (0.2 g/L of Instant Ocean Salt in distilled water). At about 6 h post fertilization (hpf), the embryos were sorted in the 6-well plate (six embryos/well), removing dead and unhealthy embryos. Then the embryos were treated with the indicated concentrations of compounds which were added into embryo water. After incubation for 24 or 48 h, the embryos were anesthetized using 0.05% 2-phenoxyethanol in embryo water, quantified and photographed.

[3] = test system: zebrafish embryos; test: Zebrafish toxicity: mortality rate; format: in vivo, zebrafish (Danio rerio)
Protocol: as §1, §2

[4] = test system: HUVECs; test: Matrigel tube formation assay; format: cell-based, Human; settings: Homo sapiens, HUVEC, 0.5 μM, 6 h, vs control, read-out: inhibitory rates of tube formation
Protocol: In the later stages of angiogenesis, tube formation of ECs is also an important process. Thus, a Matrigel tube formation assay was applied to assess the ability of HUVECs to form ECs vascular structures which is believed to be significant in new vessel formation.
Figure 4 Effects on the HUVECs tube formation. (I) HUVECs (1 × 10^4 cells) suspended in DMEM containing each compound (0.5 or 1 or 2 μM) were added to the Matrigel. Control was treated with DMEM alone. After incubation for 6 h at 37 °C, capillary networks were photographed and quantified (Olympus CKX41, magnification: 100×); (II) Rates of the HUVECs tube formation. The number of intact tubes was counted in five randomly chosen regions and expressed as the percentage of the control. The results were expressed as mean ±SD. ** p < 0.01; *** p < 0.005 compared with control.
Matrigel was dissolved at 4 °C overnight. Each well of prechilled 96-well plates was coated with 50 μL of Matrigel, incubated and solidified at 37 °C for 45 min. After removing the unsolidified fluid, HUVECs at the density of 1 × 10^4 were cultured in DMEM containing the indicated concentrations of compounds for 6 h. Controls were treated with the DMEM alone. Images were digitally captured and quantitatively analyzed (Olympus). The numbers and line lengths of the circular tubules formed by the cells were calculated manually. The values were observed from five randomly selected fields.

[5] = test system: A549; test: MTT assay, cell proliferation; format: cell-based; settings: Homo sapiens, 24 h, read-out: IC50, inhibition of cell proliferation
Procedure, shortened: (§3)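 Viability after a 24 h compound exposure (5 × 10^3 cells/well, 37 °C) was measured by MTT reduction over 3 h with a 570 nm read-out. IC50 values are concentrations that halve proliferation relative to untreated control.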

[6] = test system: HCT116; test: MTT assay, cell proliferation; format: cell-based; settings: Homo sapiens, HCT-116, 24 h, read-out: IC50, inhibition of cell proliferation
Procedure, shortened: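 Absorbance at 570 nm of DMSO-dissolved formazan was expressed as percentage growth relative to untreated cells, and IC50 was taken as the concentration giving 50% inhibition. Seeding was 5 × 10^3 cells per well, with 24 h compound treatment followed by 3 h MTT.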

[7] = test system: HeLa; test: MTT assay, cell proliferation; format: cell-based; settings: Homo sapiens, 24 h, read-out: IC50, inhibition of cell proliferation
Procedure, shortened: (§4)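 Cells (5 × 10^3/well) exposed to compound for 24 h at 37 °C, 5% CO2; HepG2, HeLa, LO2 in DMEM and K562 in RPMI 1640, each with 10% FBS. MTT added for 3 h, formazan dissolved in DMSO, absorbance at 570 nm. IC50 = concentration giving 50% inhibition of proliferation versus untreated control.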

[8] = test system: HepG2; test: MTT assay, cell proliferation; format: cell-based; settings: Homo sapiens, 24 h, read-out: IC50, inhibition of cell proliferation
Procedure, shortened: as §4

[9] = test system: K562; test: MTT assay, cell proliferation; format: cell-based; settings: Homo sapiens, 24 h, read-out: IC50, inhibition of cell proliferation
Procedure, shortened: as §4

[10] = test system: HUVEC; test: MTT assay, cell proliferation; format: cell-based, Human; settings: Homo sapiens, 24 h, read-out: IC50, inhibition of cell proliferation
Procedure, shortened: as §3

[11] = test system: LO2; test: MTT assay, cytotoxicity; format: cell-based; settings: Homo sapiens, L02, 24 h, read-out: IC50, inhibition of cell proliferation
Procedure, shortened: as §4

[12] = test system: HUVECs; test: Wound-healing migration assay; format: cell-based, Human; settings: 1 μM, 24 h, control = 100%
Description: The migration of ECs is an important step of angiogenesis. The continuity of vascular ECs is the most important factor in preserving vessel wall function. Migration of ECs is essential to the recovery of this continuity after vascular ECs injury. […] As illustrated in Figure 3(I), the HUVECs migrated into the wound area actively (between the two white dash lines) under the compound-free condition (control).
Figure 3 Effects on the HUVECs migration. (I) HUVECs suspended in serum-free Dulbecco’s Modified Eagle Medium (DMEM) containing compounds (0.25 or 0.5 or 1 μM) for 24 h were photographed under a phase contrast microscopy (Olympus CKX41, magnification: 50×). Control was treated with serum-free DMEM which was consided as resulting in 100%; (II) Migration rates of compounds on the HUVECs. Data represented the mean standard deviation (SD) from three independent experiments. *** p < 0.005compared with control.
HUVECs were seeded in 6-well plates precoated with 0.1% gelatin, and grown overnight to confluence. The monolayer cells were wounded by scratching with 10 μL pipet tips and washed twice with serum-free DMEM (Dulbecco’s modified eagle medium) to remove the nonadherent cells and then replaced by serum-free DMEM with the indicated concentrations of compounds for 24 h. Images were taken at 0 h and 24 h independently after incubation at 37 °C, 5% CO2 environment. The migrated HUVECs were manually counted. The values were observed from four randomly selected fields.

[13] = vs vehicle (0.05% DMSO), read-out: Anti-angiogenic phenotype
[14] = 2.5 µM and 10 µM, zebrafish embryos

With `CC(C)=CCCC1(C)C=Cc2c(O)c3c(c(CC=C(C)C)c2O1)OC12C(=CC4CC1C(C)(C)OC2(C/C=C(/C)C(=O)Nc1nccs1)C4=O)C3=O` (centres unmarked) [Compound 32, Thiazol-2-gambogamide] the inhibition in vivo at 1 µM ([1]; read-out: antiangiogenic rates) was 25 to 50%, the inhibition in vivo at 1 µM [1, 13] was 25 to 50% and the inhibition in vivo at 2.5 µM [1, 13] was 50 to 75%. For the same molecule, the inhibition in vivo at 10 µM [1, 13] was greater than 75%, the “Heart rates of zebrafish” value ([2]; transgenic fli-1:enhanced GFP (fli-1:EGFP) line, zebrafish, in vivo, 2.5 μM) was 60 ± 4.36 beats/min and the “Heart rates of zebrafish” value ([2]; transgenic fli-1:enhanced GFP (fli-1:EGFP) line, zebrafish, in vivo, 10 μM) was 54 ± 3.68 beats/min. The Mortality rates ([3]; 1 μM, zebrafish) was 0%, the Mortality rates [3, 14] was “less than 20%” and the Mortality rates ([3]; 2.5 μM, zebrafish) was 6.7 ± 5.77 %. For the same molecule, the Mortality rates ([3]; 10 μM, zebrafish) was 16.7 ± 5.77 %, the inhibition at 0.5 µM [4] was 39.1% and the IC50 [5] was 0.74 ± 0.04 µM. For the same molecule, the IC50 [6] was 0.45 ± 0.01 µM, the IC50 [7] was 1.08 ± 0.1 µM and the IC50 [8] was 0.81 ± 0.06 µM. It also gave an IC50 [9] of 0.4 ± 0.02 µM, an IC50 [10] of 1.09 ± 0.09 µM and an IC50 [11] of 1.7 ± 0.48 µM.
Work on `CC(=O)Nc1ccc(NC(=O)/C(C)=C\CC23OC(C)(C)C4CC(C=C5C(=O)c6c(O)c7c(c(CC=C(C)C)c6OC542)OC(C)(CCC=C(C)C)C=C7)C3=O)cc1` (centres unmarked) [Compound 35, N-(4-acetamidophenyl) gambogamide] yielded an inhibition in vivo at 1 µM ([1]; read-out: antiangiogenic rates) of 25 to 50%, an inhibition in vivo at 1 µM [1, 13] of 25 to 50% and an inhibition in vivo at 2.5 µM [1, 13] of 50 to 75%. The inhibition in vivo at 10 µM [1, 13] was greater than 75%, the “heart rates relative to control group” value ([2]; 2.5 µM and 10 µM, zebrafish) was “about half of the control group” and the “Heart rates of zebrafish” value ([2]; 2.5 μM, control 117 beats/min) was 57 ± 2.61 beats/min. The “Heart rates of zebrafish” value ([2]; 10 μM, control 117 beats/min) was 45 ± 4.95 beats/min, the Mortality rates ([3]; 1 μM, zebrafish) was 3.3 ± 5.77 % and the Mortality rates [3, 14] was “less than 20%”. It also gave a Mortality rates ([3]; 2.5 μM, zebrafish) of 10 ± 0.00 %, a Mortality rates ([3]; 10 μM, zebrafish) of 16.7 ± 5.77 % and a migratory rates [12] of 3.6%. The inhibition at 0.5 µM [4] was 37%, the IC50 [5] was 0.5 ± 0.05 µM and the IC50 [6] was 0.4 ± 0.02 µM. For the same molecule, the IC50 [7] was 0.49 ± 0.02 µM, the IC50 [8] was 0.27 ± 0.05 µM and the IC50 [9] was 0.26 ± 0.01 µM. It also gave an IC50 [10] of 0.2 ± 0.01 µM and an IC50 [11] of 1.17 ± 0.41 µM.

— publication PMC6268492, “Synthesis and Antiangiogenic Activity of Novel Gambogic Acid Derivatives” (Molecules, 2012)
